Assays:
[1] = test system: human EDG-3; assay: NF-κB luciferase reporter in 293-EBNA cells, EDG-3; type: cell-based; details: for NF-κB response, original human EDG-3 clone: original human EDG-3 clone (pC3-hedg3)
Method: 2) 3 μg NFκB-tk-p4Luc reporter DNA and 3 μg pC3-hedg1, pC3-hedg3, pC3-redg4, pC3-hedg5 or pcDNA3 DNA was diluted in 240 μl OPTI-MEM (Gibco; Cat. 31985-062)
Transient Transfection Protocol for 293-EBNA (Assay 3):
(§1) The protocol described in Example 11 for Assay 1 was followed except for the following changes:
(§2) 2) SRE Cotransfection: 0.5 μg of 2XSREtk-p4Luc-zeo reporter DNA and 3.5 μg pcDNA3, EDG-1, EDG-3 (pC3-hE3HP2, different from the clone used in Assay 2 of Example 11) or the newly cloned human EDG-4 (pC3-hedg4#36); NF-κB Cotransfection: 2 μg 6XNFκBtk-p4Luc-zeo reporter DNA and 2.0 μg pcDNA3, EDG-1, EDG-3 (pC3-hE3HP2), or EDG-4 (pC3-hedg4#36). Expression plasmid and reporter plasmid DNA samples were combined and diluted in 750 μl of DMEM/F12 (serum free media) and 20 μl Plus Reagent (Lipofectamine Plus Kit, Life Technologies Cat. 10964-013), and incubated at room temperature for 15 min.
3) 30 μl Lipofectamine Reagent (Lipofectamine Plus Kit) was diluted in 750 μl DMEM/F12. The diluted Lipofectamine was then combined with the DNA/Plus mixture and incubated at room temperature for 15 min.
6) The transfection medium was replaced with serum-free DMEM/F12 for cells transfected with 2XSREtk-p4Luc-zeo reporter DNA and with DMEM/F12 plus 10% FBS for cells tansfected with 6XNFκBtk-p4Luc-zeo reporter DNA.
2) Transfected cells were harvested by trypsinization and 50,000 cells per well were plated in 96-well Blackview plates coated with poly D-lysine (Becton Dickinson Labware, Cat. 40640). No cells were plated in the outside wells of the 96-well plate.
1) Media for cells transfected with 6XNFκBtk-p4Luc-zeo reporter DNA was replaced with DMEM/F12 plus 0.5%FBS.
(§3) 1) Media was removed and cells treated with compounds diluted in DMEM/F12 media.
(§4) 2) The cells were treated for 6 hours.
(§5) 3) Luciferase assay was performed.

[2] = biological target: human EDG-4 (Homo sapiens, UniProt O95136); assay: SRE luciferase reporter in 293-EBNA cells, human EDG-4; type: cell-based; details: for Agonist character at EDG-4: conclusion from the reporter assay of Table 2; for Rank (EMax): rank of efficacy among compounds tested
Method: (§6) NE-κB activates gene expression by binding to specific DNA sequences found in the promoters of genes regulated by this inflammation-related transcription factor. […] The SRE reporter was identical to the NF-κB reporter, except that the NF-κB binding sites were replaced with 2 SRE sites. The new reporter was called 2XSREtk-p4Luc-zeo.
as §1, §2, §3, §4, §5
(§7) Transfection was accomplished using the Lipofectamine Plus kit (Life Technologies, Cat. 10964-013), using the manufacturer's recommended conditions.
Transfection of EDG-4, expression, pretreatment and treatment of 293-EBNA cells expressing recombinant human EDG-4 was carried out essentially as described in “Example 11. […] Results were tabulated in Microsoft Excel, and analyzed with GraphPad Prism software. […] The luciferase response was expressed as fold response, after subtracting any endogenous response in pcDNA3-transfected cells at a given concentration of compound.

[3] = test system: HeLa cells; assay: IL-8 ELISA on supernatants of treated HeLa cells; type: cell-based, human; details: for PTX sensitivity of the IL-8 response: PTX 50 ng/ml overnight pre-treatment; for IL-8 induction: concentration series up to 10 μM, 6 hours
Method: Procedure #1 For HeLa Cells
Cells: HeLa (adenocarcinoma, human)
Media: DMEM/F12+10%FBS adherent
1) Cells were seeded at 0.2×10^6 cells/well in 6-well plates.
2) 1.5 ml 0.5% FBS media was added to each well.
1) Made up all required solutions in 0.5% FBS media (control). Handling of […] for use in NF-κB experiments requires that sonication, commonly used to resuspend LPA, not be done; NF-κB may be activated by lipid peroxides created through vigorous frothing.
3) 1.5 ml appropriate treatments were added to each well.
5) After the specified time cell supernatants were collected into 1.5 ml eppendorf tubes, spun down at 14000 rpm for 5 minutes and stored at −20° C. for later ELISA determination.
D. Detection of Interleukin-8 (IL-8) using an IL-8 ELISA (Enzyme-Linked InimunoSorbent Assay).
1) The Quantikine Human IL-8 ImmunoAssay Kit was obtained from R&D Systems (Cat. D8050).
4) The assay procedure was followed as recommended in the kit for cell culture supernatant samples.
5) ELISA was performed on 50 μl samples of culture supernatant and duplicate samples were measured for each well. Each treatment was performed on triplicate wells.
6) Plates were read on UVmax kinetic microplate reader (Molecular Devices), set to 450 nm and correction set to 575 nm, using Wsoftmax software version 2.34.
Procedure #2 For HeLa Cells
1) Cells were seeded at 2.5×10^4 cells/well in 24-well plates.
2) 0.5 ml 0.5% FBS media was added to all wells not requiring PTX pre-treatment.
3) For wells requiring PTX; 0.5 ml 0.5% FBS media containing 50 ng/ml PTX (1 volume PTX (RBI Cat. P140): 1 volume DTT, incubate 37° C. for 30 minutes then dilute to 50 ng/ml) was added.
Follow Procedure #2 For HeLa Cells with the following exceptions:
Concentrations for LPC, LPE, LPG, LPS, sphingosine and SM used were 10, 50, 100, 1000, and 5000 nM. Concentrations for LPI, lyso-PAF and lysosulfatide used were 0.3 and 3 μM.
2) A 30 minute pre-treatment at 37° C./5%CO2 of 0.5 ml of suramin was done to all wells except control, any PTX and ET-18-OCH3 wells before step 3 of section C.

[4] = test system: 293-EBNA cells transfected with empty expression vector pcDNA3; assay: SRE luciferase reporter in 293-EBNA cells, empty vector pcDNA3; type: cell-based
Method: as §6, §1, §2, §3, §4, §7
293-EBNA cells were grown, lipofected in monolayer cultures, and pretreated as described above for Example 11, assay #1, except that NF-κB and AP-1 reporter-transfected cells were pretreated for 6 hr in medium containing 0.5% FBS, then treated overnight in the same medium with or without 10 μM LPA.

Compound | NF-κB response, original human EDG-3 clone [1] | Agonist character at EDG-4 [2] | Rank (EMax) [2] | IL-8 production at 0.3 μM ([3]; 0.3 μM, 6 hr) | IL-8 response ([3]; 1 and 10 μM, 1, 6 or 24 hours) | PTX sensitivity of the IL-8 response [3] | IL-8 induction [3] | Lowest concentration that reliably induces IL-8 ([3]; repeated experiments) | SRE response in control cotransfection ([4]; 3 μM, 6 hours, Assay #3) | Induction of the NF-κB reporter gene compared to untreated controls ([1]; EDG-3 clone pC3-E3HP2, 3 μM, 6 hours) | EC50 ([2]; 293-EBNA expressing human EDG-4, luciferase after 6 hr, pcDNA3 response subtracted) [nM] | Induction of the SRE reporter gene ([2]; pC3-hedg4#36, 3 μM SPC, 6 hr, Example 15A) [fold] | EMax (Percent) ([2]; relative efficacy, 6 hr) [%] | Induction of the SRE reporter, control ([4]; 3 μM SPC, 6 hr, Example 15A)
CCCCCCCCCCCCC/C=C/[C@@H](O)[C@@H](N)COP(=O)(O)O [S1P, sphingosine-1-phosphate] | did not produce a NF-κB response | full agonists | 2 | near plateau values | time- and concentration-dependent IL-8 response | PTX-sensitive | induce IL-8 in HeLa cells in a concentration-dependent manner | about 30 nM | about 1.5 fold |  |  |  |  | 
CCCCCCCCCCCCC/C=C/[C@@H](O)[C@@H](N)COP(=O)([O-])OCC[N+](C)(C)C [SPC, sphingosylphosphorylcholine] | did not produce a NF-κB response | full agonists | 1 |  |  | PTX-sensitive | induce IL-8 in HeLa cells in a concentration-dependent manner |  |  | about 8 fold | 880 | 26.3 | 100 | about 2.5 fold

Source: patent US6482609B1, “Isolated human EDG-4 receptor and polynucletide encoding said receptor” (priority 1997, dated 2002)
